“And” between values parts separate entries of the source, which are not always exact repeats. Identical values can stand only once. The source made the active and inactive calls. How the calls were made is not given here.
Test system: rodent lifetime carcinogenesis bioassay, tumor incidence TD50
Experiment: chronic cancer bioassays in animals – CPDB, compiled studies (AID 1745844)

Structure (SMILES): O=NN(CCO)C(=O)NCCCl
- TD50 (rat, strain Fischer 344, females, by gavage, site: all sites, lesion: mononuclear-cell leukemia, dosed 40 weeks, study length 115 weeks): 0.76 mg/kg/day
- TD50 (rat, strain Fischer 344, females, by gavage, site: kidney tubule, lesion: several types, types named in the paper, dosed 40 weeks, study length 115 weeks): 4.38 mg/kg/day
- TD50 (rat, strain Fischer 344, females, by gavage, site: liver, lesion: cholangiocarcinoma, dosed 40 weeks, study length 115 weeks): 4.38 mg/kg/day
- TD50 (rat, strain Fischer 344, females, by gavage, site: liver, lesion: hepatocellular carcinoma, dosed 40 weeks, study length 115 weeks): 0.653 mg/kg/day
- TD50 (rat, strain Fischer 344, females, by gavage, site: liver, lesion: neoplastic nodule, dosed 40 weeks, study length 115 weeks): 0.564 mg/kg/day
- TD50 (rat, strain Fischer 344, females, by gavage, site: liver, lesion: several types, types named in the paper, dosed 40 weeks, study length 115 weeks): 0.488 mg/kg/day
- TD50 (rat, strain Fischer 344, females, in drinking water, site: liver, lesion: one or several types, types not named, dosed 30 weeks, study length 104 weeks): 1.19 mg/kg/day
- TD50 (rat, strain Fischer 344, females, in drinking water, site: uterus, lesion: one or several types, types not named, dosed 30 weeks, study length 104 weeks): 0.669 mg/kg/day
- TD50 (rat, strain Fischer 344, males, by gavage, site: kidney tubule, lesion: several types, types named in the paper, dosed 35 weeks, study length 120 weeks): 0.663 mg/kg/day
- TD50 (rat, strain Fischer 344, males, by gavage, site: liver, lesion: cholangiocarcinoma, dosed 35 weeks, study length 120 weeks): 0.926 mg/kg/day
- TD50 (rat, strain Fischer 344, males, by gavage, site: liver, lesion: hepatocellular carcinoma, dosed 35 weeks, study length 120 weeks): 0.233 mg/kg/day
- TD50 (rat, strain Fischer 344, males, by gavage, site: liver, lesion: neoplastic nodule, dosed 35 weeks, study length 120 weeks): 1.19 mg/kg/day
- TD50 (rat, strain Fischer 344, males, by gavage, site: liver, lesion: several types, types named in the paper, dosed 35 weeks, study length 120 weeks): 0.15 mg/kg/day
- TD50 (rat, strain Fischer 344, males, in drinking water, site: liver, lesion: one or several types, types not named, dosed 30 weeks, study length 104 weeks): 0.59 mg/kg/day

Structure (SMILES): Cc1ccc(S(=O)(=O)OCCN(C)N=O)cc1
- TD50 (rat, strain Fischer 344, females, by gavage, site: liver, lesion: hemangiosarcoma, dosed 121 weeks, study length 121 weeks): 12.8 mg/kg/day
- TD50 (rat, strain Fischer 344, females, by gavage, site: liver, lesion: hepatocellular carcinoma, dosed 121 weeks, study length 121 weeks): 7.55 mg/kg/day
- TD50 (rat, strain Fischer 344, females, by gavage, site: liver, lesion: neoplastic nodule, dosed 121 weeks, study length 121 weeks): 22.3 mg/kg/day
- TD50 (rat, strain Fischer 344, females, by gavage, site: liver, lesion: several types, types named in the paper, dosed 121 weeks, study length 121 weeks): 3.47 mg/kg/day
- TD50 (rat, strain Fischer 344, males, by gavage, site: liver, lesion: hemangiosarcoma, dosed 121 weeks, study length 121 weeks): 11.8 mg/kg/day
- TD50 (rat, strain Fischer 344, males, by gavage, site: liver, lesion: hepatocellular carcinoma, dosed 121 weeks, study length 121 weeks): 32.2 mg/kg/day
- TD50 (rat, strain Fischer 344, males, by gavage, site: liver, lesion: neoplastic nodule, dosed 121 weeks, study length 121 weeks): 12.6 mg/kg/day
- TD50 (rat, strain Fischer 344, males, by gavage, site: liver, lesion: several types, types named in the paper, dosed 121 weeks, study length 121 weeks): 7.79 mg/kg/day
- TD50 (rat, strain Fischer 344, males, by gavage, site: pituitary gland, lesion: adenoma, dosed 121 weeks, study length 121 weeks): 11.1 mg/kg/day
- TD50 (rat, strain Fischer 344, males, by gavage, site: testis, lesion: interstitial-cell tumor, dosed 121 weeks, study length 121 weeks): 11.1 mg/kg/day

Structure (SMILES): O=NN1CCN(N=O)CC1
- TD50 (mouse, strain C17, females, by gavage, site: forestomach, lesion: squamous-cell carcinoma, dosed 40 weeks, study length 104 weeks): 4.66 mg/kg/day
- TD50 (mouse, strain C17, females, by gavage, site: uterus, lesion: reticulum-cell neoplasm, type A, dosed 40 weeks, study length 104 weeks): 4.13 mg/kg/day
- TD50 (mouse, strain C17, males, by gavage, site: forestomach, lesion: squamous-cell carcinoma, dosed 40 weeks, study length 104 weeks): 2.01 mg/kg/day
- carcinogen call (mouse, strain Swiss, females, in drinking water, site: any site (literature study), lesion: several types, types named in the paper, dosed 52 weeks, study length 100 weeks): positive
- TD50 (mouse, strain Swiss, males, in drinking water, site: any site (literature study), lesion: several types, types named in the paper, dosed 52 weeks, study length 100 weeks): 8.24 mg/kg/day
- TD50 (mouse, strain Swiss, males, in drinking water, site: liver, lesion: hepatocellular carcinoma, dosed 52 weeks, study length 100 weeks): 51.9 mg/kg/day
- TD50 (mouse, strain Swiss, males, in drinking water, site: lung, lesion: adenoma, dosed 52 weeks, study length 100 weeks): 8.7 mg/kg/day

Structure (SMILES): ClCC(Cl)Cl
- TD50 (mouse, strain B6C3F1, females, by gavage, site: adrenal gland + liver, lesion: pheochromocytoma + hepatocellular carcinoma, dosed 78 weeks, study length 90 weeks): 47.6 mg/kg/day
- TD50 (mouse, strain B6C3F1, females, by gavage, site: adrenal gland, lesion: pheochromocytoma, dosed 78 weeks, study length 90 weeks): 248 mg/kg/day
- TD50 (mouse, strain B6C3F1, females, by gavage, site: any site (literature study), lesion: several types, types named in the paper, dosed 78 weeks, study length 90 weeks): 52.9 mg/kg/day
- TD50 (mouse, strain B6C3F1, females, by gavage, site: liver, lesion: hepatocellular adenoma + hepatocellular carcinoma + neoplastic nodule, dosed 78 weeks, study length 90 weeks): 47.6 mg/kg/day
- TD50 (mouse, strain B6C3F1, females, by gavage, site: liver, lesion: hepatocellular carcinoma, dosed 78 weeks, study length 90 weeks): 47.6 mg/kg/day
- TD50 (mouse, strain B6C3F1, females, by gavage, site: lung, lesion: alveolar/bronchiolar adenoma + alveolar/bronchiolar carcinoma, dosed 78 weeks, study length 90 weeks): 787 mg/kg/day
- TD50 (mouse, strain B6C3F1, males, by gavage, site: adrenal gland + liver, lesion: pheochromocytoma + hepatocellular carcinoma, dosed 78 weeks, study length 90 weeks): 65 mg/kg/day
- TD50 (mouse, strain B6C3F1, males, by gavage, site: adrenal gland, lesion: pheochromocytoma, dosed 78 weeks, study length 90 weeks): 588 mg/kg/day
- TD50 (mouse, strain B6C3F1, males, by gavage, site: any site (literature study), lesion: several types, types named in the paper, dosed 78 weeks, study length 90 weeks): 79.5 mg/kg/day
- TD50 (mouse, strain B6C3F1, males, by gavage, site: liver, lesion: hepatocellular adenoma + hepatocellular carcinoma + neoplastic nodule, dosed 78 weeks, study length 90 weeks): 65 mg/kg/day
- TD50 (mouse, strain B6C3F1, males, by gavage, site: liver, lesion: hepatocellular carcinoma, dosed 78 weeks, study length 90 weeks): 65 mg/kg/day
- TD50 (mouse, strain B6C3F1, males, by gavage, site: lung, lesion: alveolar/bronchiolar adenoma + alveolar/bronchiolar carcinoma, dosed 78 weeks, study length 90 weeks): 1560 mg/kg/day
- carcinogen call (rat, strain Osborne-Mendel, females, by gavage, site: any site (literature study), lesion: several types, types named in the paper, dosed 78 weeks, study length 112 weeks): negative (inactive)
- TD50 (rat, strain Osborne-Mendel, females, by gavage, site: liver, lesion: hepatocellular adenoma + hepatocellular carcinoma + neoplastic nodule, dosed 78 weeks, study length 112 weeks): 771 mg/kg/day
- carcinogen call (rat, strain Osborne-Mendel, males, by gavage, site: any site (literature study), lesion: several types, types named in the paper, dosed 78 weeks, study length 112 weeks): negative (inactive)

Structure (SMILES): Nc1ccc(-c2ccc(N)c(N)c2)cc1N
- TD50 (mouse, strain CD-1 HaM/ICR, females, in feed, site: any site (literature study), lesion: several types, types named in the paper, dosed 77 weeks, study length 98 weeks): 599 mg/kg/day (inactive)
- TD50 (mouse, strain CD-1 HaM/ICR, females, in feed, site: liver, lesion: several types, types named in the paper, dosed 77 weeks, study length 98 weeks): 1690 mg/kg/day (inactive)
- TD50 (mouse, strain CD-1 HaM/ICR, females, in feed, site: lung, lesion: several types, types named in the paper, dosed 77 weeks, study length 98 weeks): 1030 mg/kg/day (inactive)
- TD50 (mouse, strain CD-1 HaM/ICR, males, in feed, site: any site (literature study), lesion: several types, types named in the paper, dosed 77 weeks, study length 94 weeks): 224 mg/kg/day
- TD50 (mouse, strain CD-1 HaM/ICR, males, in feed, site: liver, lesion: several types, types named in the paper, dosed 77 weeks, study length 94 weeks): 4170 mg/kg/day (inactive)
- TD50 (mouse, strain CD-1 HaM/ICR, males, in feed, site: lung, lesion: several types, types named in the paper, dosed 77 weeks, study length 94 weeks): 288 mg/kg/day
- TD50 (rat, strain Charles River CD (Sprague-Dawley), males, in feed, site: any site (literature study), lesion: several types, types named in the paper, dosed 77 weeks, study length 107 weeks): 200 mg/kg/day
- TD50 (rat, strain Charles River CD (Sprague-Dawley), males, in feed, site: liver, lesion: hepatoma, dosed 77 weeks, study length 107 weeks): 395 mg/kg/day
- TD50 (rat, strain Charles River CD (Sprague-Dawley), males, in feed, site: liver, lesion: several types, types named in the paper, dosed 77 weeks, study length 107 weeks): 259 mg/kg/day

Structure (SMILES): CN(C)CCN(C)N=O
- TD50 (hamster, strain Syrian Golden, females, by gavage, site: colon, lesion: several types, types named in the paper, dosed 61 weeks, study length 106 weeks): 21 mg/kg/day
- TD50 (hamster, strain Syrian Golden, females, by gavage, site: liver, lesion: hepatocellular tumor, dosed 61 weeks, study length 106 weeks): 44 mg/kg/day
- TD50 (hamster, strain Syrian Golden, females, by gavage, site: lung, lesion: alveolar/bronchiolar adenoma, dosed 61 weeks, study length 106 weeks): 9.45 mg/kg/day
- TD50 (hamster, strain Syrian Golden, females, by gavage, site: nasal mucosa, lesion: malignant tumor, dosed 61 weeks, study length 106 weeks): 9.45 mg/kg/day
- TD50 (hamster, strain Syrian Golden, females, by gavage, site: nasal mucosa, lesion: several types, types named in the paper, dosed 61 weeks, study length 106 weeks): 2.76 mg/kg/day
- TD50 (hamster, strain Syrian Golden, males, by gavage, site: colon, lesion: adenocarcinoma, dosed 61 weeks, study length 106 weeks): 38.7 mg/kg/day
- TD50 (hamster, strain Syrian Golden, males, by gavage, site: liver, lesion: hepatocellular tumor, dosed 61 weeks, study length 106 weeks): 11.7 mg/kg/day
- TD50 (hamster, strain Syrian Golden, males, by gavage, site: nasal mucosa, lesion: malignant tumor, dosed 61 weeks, study length 106 weeks): 38.7 mg/kg/day
- TD50 (hamster, strain Syrian Golden, males, by gavage, site: nasal mucosa, lesion: several types, types named in the paper, dosed 61 weeks, study length 106 weeks): 6.25 mg/kg/day

Structure (SMILES): Nc1ccc(O)c(N)c1
- carcinogen call (mouse, strain B6C3F1, females, by gavage, site: any site (literature study), lesion: several types, types named in the paper, dosed 103 weeks, study length 104 weeks): negative (inactive)
- TD50 (mouse, strain B6C3F1, females, by gavage, site: liver, lesion: hepatocellular adenoma + hepatocellular carcinoma + neoplastic nodule, dosed 103 weeks, study length 104 weeks): 2890 mg/kg/day
- TD50 (mouse, strain B6C3F1, females, by gavage, site: lung, lesion: alveolar/bronchiolar adenoma + alveolar/bronchiolar carcinoma, dosed 103 weeks, study length 104 weeks): 239 mg/kg/day
- TD50 (mouse, strain B6C3F1, males, by gavage, site: kidney, lesion: tubule adenoma, dosed 103 weeks, study length 104 weeks): 320 mg/kg/day and 143 mg/kg/day
- TD50 (mouse, strain B6C3F1, males, by gavage, site: liver, lesion: hepatocellular adenoma + hepatocellular carcinoma + neoplastic nodule, dosed 103 weeks, study length 104 weeks): 164 mg/kg/day
- TD50 (mouse, strain B6C3F1, males, by gavage, site: lung, lesion: alveolar/bronchiolar adenoma + alveolar/bronchiolar carcinoma, dosed 103 weeks, study length 104 weeks): 194 mg/kg/day
- TD50 (rat, strain Fischer 344, females, by gavage, site: any site (literature study), lesion: several types, types named in the paper, dosed 103 weeks, study length 104 weeks): 46.3 mg/kg/day (inactive)
- TD50 (rat, strain Fischer 344, males, by gavage, site: any site (literature study), lesion: several types, types named in the paper, dosed 103 weeks, study length 104 weeks): 543 mg/kg/day (inactive)
